Reference: publication PMC12669672, “Structural insights into selective and dual antagonism of EP2 and EP4 prostaglandin receptors” (The EMBO Journal, 2025)
“And” between values parts separate entries of the source, which are not always exact repeats. Equal values may be shown once. Read-outs that look alike come from different tables or passages of the source.

Experiments:
EP2 [1] = system: EP2; parameters: method as in af Forselles et al, 2011; details: against PGE2-induced cAMP signaling in GloSensor cAMP assay; ref af Forselles et al, 2011; cited from earlier work
EP2 E23A = biological target: T1, EP2 E23A (Homo sapiens, UniProt P43116, E23A); experiment: GloSensor cAMP assay, antagonism of PGE2-induced cAMP; type: cell-based
T1 construct: The full-length EP2 or EP4 was cloned into the pcDNA3.1 vector; FLAG (N); expressed in transfected cells; host or cells: AD293 cells
T1 sequence (P43116 whole entry E23A): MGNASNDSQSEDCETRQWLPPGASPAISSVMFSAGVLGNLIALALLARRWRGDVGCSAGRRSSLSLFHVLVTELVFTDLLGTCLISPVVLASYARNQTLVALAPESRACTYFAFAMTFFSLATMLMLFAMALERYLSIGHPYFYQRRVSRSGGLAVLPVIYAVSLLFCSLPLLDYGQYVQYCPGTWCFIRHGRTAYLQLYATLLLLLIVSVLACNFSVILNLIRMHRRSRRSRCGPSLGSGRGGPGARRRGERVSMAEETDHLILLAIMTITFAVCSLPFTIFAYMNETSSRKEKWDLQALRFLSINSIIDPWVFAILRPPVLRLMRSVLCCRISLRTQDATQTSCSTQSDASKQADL
In short: (§1)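 Read-out is GloSensor luminescence from AD293 cells co-expressing FLAG-tagged EP2 variant and GloSensor22F biosensor, transfected at a 1:1 plasmid ratio. Cells were plated at 4000 per well in CO2-independent medium containing 2% cAMP reagent, incubated 1 h at 37 °C, then read.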

EP2 S28A = biological target: T2, EP2 S28A (Homo sapiens, UniProt P43116, S28A); experiment: as above; type: cell-based; details: for cAMP activity (∆pIC50 from EP2 WT): TG6-129, S28A
T2 construct: The full-length EP2 or EP4 was cloned into the pcDNA3.1 vector; FLAG (N); expressed in transfected cells; host or cells: AD293 cells
T2 sequence (P43116 whole entry S28A): as the sequence (P43116 whole entry E23A) above, with A23E, S28A counted along it
In short: as §1

EP4 I317A = biological target: T3, EP4 I317A (Homo sapiens, UniProt P35408, I317A); experiment: as above; type: cell-based; details: for cAMP activity (∆pIC50 from EP4 WT): TG6-129, I317A
T3 construct: The full-length EP2 or EP4 was cloned into the pcDNA3.1 vector; FLAG (N); expressed in transfected cells; host or cells: AD293 cells
T3 sequence (P35408 whole entry I317A): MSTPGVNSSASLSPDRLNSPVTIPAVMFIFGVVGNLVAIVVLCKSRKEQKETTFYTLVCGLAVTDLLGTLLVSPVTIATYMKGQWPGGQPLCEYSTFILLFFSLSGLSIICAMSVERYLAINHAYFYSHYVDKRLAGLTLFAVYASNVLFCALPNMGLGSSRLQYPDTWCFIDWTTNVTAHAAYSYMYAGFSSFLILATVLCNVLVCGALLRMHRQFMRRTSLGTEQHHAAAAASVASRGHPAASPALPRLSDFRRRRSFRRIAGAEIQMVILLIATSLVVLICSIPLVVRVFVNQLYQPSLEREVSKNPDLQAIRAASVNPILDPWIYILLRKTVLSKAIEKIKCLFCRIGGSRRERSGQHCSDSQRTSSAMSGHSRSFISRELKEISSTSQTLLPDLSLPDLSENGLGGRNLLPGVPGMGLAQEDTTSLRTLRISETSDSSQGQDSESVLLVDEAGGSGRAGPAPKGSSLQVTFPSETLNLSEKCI

[2] = biological target: T4, constitutively active EP2 E23A (Homo sapiens, UniProt P43116, E23A); experiment: GloSensor cAMP assay, inhibition of constitutive activity; type: cell-based
T4 construct: The full-length EP2 or EP4 was cloned into the pcDNA3.1 vector; FLAG (N); expressed in transfected cells; host or cells: AD293 cells
T4 sequence (P43116 whole entry E23A): as the sequence (P43116 whole entry E23A) above
In short: as §1

[3] = biological target: T5, constitutively active EP2 S28A (Homo sapiens, UniProt P43116, S28A); experiment: as above; type: cell-based
T5 construct: The full-length EP2 or EP4 was cloned into the pcDNA3.1 vector; FLAG (N); expressed in transfected cells; host or cells: AD293 cells
T5 sequence (P43116 whole entry S28A): as the sequence (P43116 whole entry E23A) above, with A23E, S28A counted along it
In short: as §1

[4] = biological target: T6, constitutively active EP4 I317A (Homo sapiens, UniProt P35408, I317A); experiment: as above; type: cell-based
T6 construct: The full-length EP2 or EP4 was cloned into the pcDNA3.1 vector (Invitrogen), incorporating an N-terminal FLAG tag; expressed in transfected cells; host or cells: AD293
T6 sequence (P35408 whole entry I317A): as the sequence (P35408 whole entry I317A) above

EP2 [5] = biological target: EP2; parameters: method as in Ganesh et al, 2013; details: antagonism towards EP2; ref Ganesh et al, 2013; cited from earlier work
EP4 = biological target: EP4; parameters: method as in Ganesh et al, 2013; details: antagonism towards EP4; ref Ganesh et al, 2013; cited from earlier work
[6] = 1 h, TG6-129 log([M]) -12, read-out: % cAMP activity (normalized to WT)
[7] = no PGE2, pIC50 mutant - pIC50 WT, mean

In the case of `COc1ccc2cc(OCC3(C(=O)O)CN(C(=O)c4ccc(F)cc4)C3)ccc2c1` [PF-04418948], the Kb (EP2 [1]) is given as 0.0018 µM.
With `CCc1nnc(NS(=O)(=O)c2ccc(NC(=S)NC(=O)/C=C/c3ccc(F)cc3)cc2)s1` [TG6-129] the IC50 (EP2 E23A) was 0.0204 µM, the remaining activity at 1 pM (EP2 E23A; [6]) was 74.1% and the “cAMP activity (∆pIC50 from EP2 WT)” value (EP2 E23A; TG6-129, E23A, Mean) was 0.563. The IC50 (EP2 S28A) was 0.0363 µM, the remaining activity at 10 pM (EP2 S28A; 1 h, TG6-129 log([M]) -11, read-out: % cAMP activity (normalized to WT)) was 109% and the remaining activity at 1 pM (EP2 S28A; [6]) was 106%. For the same compound, the “cAMP activity (∆pIC50 from EP2 WT)” value (EP2 S28A; Mean) was 0.282, the “cAMP activity (∆pIC50 from EP2 WT)” value (EP2 S28A; single experiments 1st-3rd) was 0.159 and 0.319 and 0.367 and the IC50 (EP4 I317A) was 10.7 µM. The remaining activity at 100 µM (EP4 I317A; 1 h, TG6-129 log([M]) -4.00, read-out: % cAMP activity (normalized to WT)) was 16.3%, the remaining activity at […] (EP4 I317A; 1 h, TG6-129 log([M]) -4.70, read-out: % cAMP activity (normalized to WT)) was 19.5% and the remaining activity at […] (EP4 I317A; 1 h, TG6-129 log([M]) -5.40, read-out: % cAMP activity (normalized to WT)) was 47.7%. It also gave a remaining activity at […] (EP4 I317A; 1 h, TG6-129 log([M]) -6.10, read-out: % cAMP activity (normalized to WT)) of 54.4%, a remaining activity at 0.1585 µM (EP4 I317A; 1 h, TG6-129 log([M]) -6.80, read-out: % cAMP activity (normalized to WT)) of 59.7% and a remaining activity at 0.03236 µM (EP4 I317A; 1 h, TG6-129 log([M]) -7.49, read-out: % cAMP activity (normalized to WT)) of 57.3%. The remaining activity at 0.006457 µM (EP4 I317A; 1 h, TG6-129 log([M]) -8.19, read-out: % cAMP activity (normalized to WT)) was 60.6%, the remaining activity at 0.001288 µM (EP4 I317A; 1 h, TG6-129 log([M]) -8.89, read-out: % cAMP activity (normalized to WT)) was 53.5% and the “cAMP activity (∆pIC50 from EP4 WT)” value (EP4 I317A; Mean) was 0.074. The “cAMP activity (∆pIC50 from EP4 WT)” value (EP4 I317A; single experiments 1st-3rd) was 0.047 and -0.037 and 0.211, the IC50 [2] was 0.0316 µM and the remaining activity at 10 µM ([2]; 1 h, TG6-129 log([M]) -5, EP2-E23A, read-out: % cAMP activity (normalized to WT)) was 5.62%. For the same compound, the remaining activity at 1 µM ([2]; 1 h, TG6-129 log([M]) -6, EP2-E23A, read-out: % cAMP activity (normalized to WT)) was 4.15%, the remaining activity at 0.1 µM ([2]; 1 h, TG6-129 log([M]) -7, EP2-E23A, read-out: % cAMP activity (normalized to WT)) was 17.9% and the remaining activity at 0.001 µM ([2]; 1 h, TG6-129 log([M]) -9, EP2-E23A, read-out: % cAMP activity (normalized to WT)) was 93.8%. It also gave a remaining activity at 0.0001 µM ([2]; 1 h, TG6-129 log([M]) -10, EP2-E23A, read-out: % cAMP activity (normalized to WT)) of 108%, a remaining activity at 10 pM ([2]; 1 h, TG6-129 log([M]) -11, EP2-E23A, read-out: % cAMP activity (normalized to WT)) of 111% and a remaining activity at 1 pM ([2]; 1 h, TG6-129 log([M]) -12, EP2-E23A, read-out: % cAMP activity (normalized to WT)) of 98%. For the same compound, the “TG6-129 cAMP activity (∆pIC50 from EP2 WT), Mean” value ([2]; E23A, Mean) was 0.363, the “TG6-129 cAMP activity (∆pIC50 from EP2 WT)” value ([2]; E23A, single experiments 1st-3rd) was 0.381 and 0.341 and 0.367 and the ΔpIC50 [2, 7] was 0.36 ± 0.01. The IC50 [3] was 0.0389 µM, the remaining activity at 10 µM ([3]; 1 h, TG6-129 log([M]) -5, EP2-S28A, read-out: % cAMP activity (normalized to WT)) was 8.3% and the remaining activity at 1 µM ([3]; 1 h, TG6-129 log([M]) -6, EP2-S28A, read-out: % cAMP activity (normalized to WT)) was 8.69%. For the same compound, the remaining activity at 0.001 µM ([3]; 1 h, TG6-129 log([M]) -9, EP2-S28A, read-out: % cAMP activity (normalized to WT)) was 255%, the “TG6-129 cAMP activity (∆pIC50 from EP2 WT), Mean” value ([3]; S28A, Mean) was 0.422 and the “TG6-129 cAMP activity (∆pIC50 from EP2 WT)” value ([3]; S28A, single experiments 1st-3rd) was 0.401 and 0.405 and 0.460. For the same compound, the ΔpIC50 [3, 7] was 0.42 ± 0.02, the IC50 [4] was 3.55 µM and the remaining activity at 100 µM ([4]; 1 h, TG6-129 log([M]) -4.00, EP4-I317A, read-out: % cAMP activity (normalized to WT)) was 6.11%. For the same compound, the remaining activity at […] ([4]; 1 h, TG6-129 log([M]) -4.70, EP4-I317A, read-out: % cAMP activity (normalized to WT)) was 11.7%, the remaining activity at […] ([4]; 1 h, TG6-129 log([M]) -5.40, EP4-I317A, read-out: % cAMP activity (normalized to WT)) was 33.6% and the remaining activity at […] ([4]; 1 h, TG6-129 log([M]) -6.10, EP4-I317A, read-out: % cAMP activity (normalized to WT)) was 68.9%. The remaining activity at 0.1585 µM ([4]; 1 h, TG6-129 log([M]) -6.80, EP4-I317A, read-out: % cAMP activity (normalized to WT)) was 80.8%, the remaining activity at 0.03236 µM ([4]; 1 h, TG6-129 log([M]) -7.49, EP4-I317A, read-out: % cAMP activity (normalized to WT)) was 80.3% and the remaining activity at 0.006457 µM ([4]; 1 h, TG6-129 log([M]) -8.19, EP4-I317A, read-out: % cAMP activity (normalized to WT)) was 83%. For the same compound, the remaining activity at 0.001288 µM ([4]; 1 h, TG6-129 log([M]) -8.89, EP4-I317A, read-out: % cAMP activity (normalized to WT)) was 79.7%, the “TG6-129 cAMP activity (∆pIC50 from EP4 WT), Mean” value ([4]; I317A, Mean) was 0.256 and the ΔpIC50 [4, 7] was 0.26 ± 0.11. The Kd (EP2 [5]) was 0.0088 µM and the Kd (EP4) was 3.9 µM.
